Measurements reported in patent US20250313560A1, “Novel bicyclic benzylamido pyridine derivatives as SOS1 inhibitors” (Boehringer Ingelheim International GmbH, priority 2024, published 2025).

Experiments:
[1] = tested on: ERK phosphorylation in NCI-H358 SOS2 KO cells (KRAS G12C); experiment: Erk phosphorylation assay; assay type: cell-based, human; conditions: Homo sapiens, NCI-H358, NCI-H358 SOS2 KO cells, EGF stimulated; average of at least two measurements; read-out: pERK IC50
Procedure, shortened: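 NCI-H358 SOS2 KO cells (KRAS G12C) in DMEM/2% FBS were pretreated 50 min with compound, then stimulated with EGF (approx. 8 ng/mL) for 10-15 min. pERK1/2 (Thr202/Tyr204) measured in lysates by AlphaLISA SureFire; IC50 from variable-slope fit, averaged over at least two measurements.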

SOS1 and KRAS G12D = SOS1 and KRAS G12D (Homo sapiens (Human), UniProt Q07889); experiment: KRAS::SOS1 AlphaScreen binding assay (KRAS G12D); conditions: average of at least two measurements
SOS1 and KRAS G12C = SOS1 and KRAS G12C (Homo sapiens (Human), UniProt Q07889); experiment: KRAS::SOS1 AlphaScreen binding assay (KRAS G12C); conditions: average of at least two measurements
human hepatocytes = experiment: Metabolic stability in human hepatocytes; conditions: 1 μM test compound, 50% human serum, percentage of liver blood flow
P450 3A4 = P450 3A4 (Homo sapiens (Human), UniProt P08684); experiment: Cytochrome P450 isoenzyme inhibition assay (P450 3A4, midazolam); assay type: in vitro ADME; conditions: human liver microsomes, Midazolam as substrate; read-out: CYP3A4 inhibition IC50
Procedure, shortened: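 Midazolam (5 μM) hydroxylation by human liver microsomes (0.1 mg/ml) in 0.1 M TRIS with 5 mM MgCl2, started with 1 mM NADPH. Five compound concentrations in duplicate, e.g. top 50 μM with 1:4 dilutions. Metabolite quantified by LC-MS/MS against internal standard; IC50 from inhibition relative to no-compound control.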

CYP3A4 = CYP3A4 (Homo sapiens (Human), UniProt P08684); experiment: Mechanism-based inhibition of CYP3A4 assay (MBI 3A4); assay type: in vitro ADME; conditions: human, human liver microsomes, probe midazolam 15 μM (hydroxy-midazolam formation), midazolam substrate, hydroxy-midazolam formation after 30 min preincubation relative to 0 min, read-out: MBI inhibition % ctrl. [%] with MDZ
Procedure, shortened: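 Human liver microsomes (0.2 mg/mL) were preincubated with compound at 0, 5 or 25 μM plus 1 mM NADPH for 0, 10 or 30 min, then diluted 1:10 and incubated 10 min with 15 μM midazolam. Hydroxy-midazolam was measured by LC/MS-MS; readout is formation after 30 min relative to 0 min preincubation (%).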

CYP3A4, sequence (P08684 whole entry): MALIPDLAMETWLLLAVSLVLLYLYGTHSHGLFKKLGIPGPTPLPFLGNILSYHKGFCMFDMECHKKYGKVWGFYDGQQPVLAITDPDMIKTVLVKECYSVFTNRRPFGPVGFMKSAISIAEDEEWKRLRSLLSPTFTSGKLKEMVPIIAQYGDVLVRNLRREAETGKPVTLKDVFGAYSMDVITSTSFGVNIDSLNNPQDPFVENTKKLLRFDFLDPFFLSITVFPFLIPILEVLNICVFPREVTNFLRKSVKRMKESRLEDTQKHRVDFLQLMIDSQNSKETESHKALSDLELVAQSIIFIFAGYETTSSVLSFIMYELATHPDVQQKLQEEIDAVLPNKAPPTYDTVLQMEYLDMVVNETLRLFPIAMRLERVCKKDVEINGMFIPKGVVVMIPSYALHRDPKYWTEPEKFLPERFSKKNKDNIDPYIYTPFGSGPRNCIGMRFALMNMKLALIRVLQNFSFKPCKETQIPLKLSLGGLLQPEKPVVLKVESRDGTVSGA
P450 3A4, sequence (P08684 whole entry): as above
SOS1 and KRAS G12D, sequence (Q07889 564-1049, stated change not applied): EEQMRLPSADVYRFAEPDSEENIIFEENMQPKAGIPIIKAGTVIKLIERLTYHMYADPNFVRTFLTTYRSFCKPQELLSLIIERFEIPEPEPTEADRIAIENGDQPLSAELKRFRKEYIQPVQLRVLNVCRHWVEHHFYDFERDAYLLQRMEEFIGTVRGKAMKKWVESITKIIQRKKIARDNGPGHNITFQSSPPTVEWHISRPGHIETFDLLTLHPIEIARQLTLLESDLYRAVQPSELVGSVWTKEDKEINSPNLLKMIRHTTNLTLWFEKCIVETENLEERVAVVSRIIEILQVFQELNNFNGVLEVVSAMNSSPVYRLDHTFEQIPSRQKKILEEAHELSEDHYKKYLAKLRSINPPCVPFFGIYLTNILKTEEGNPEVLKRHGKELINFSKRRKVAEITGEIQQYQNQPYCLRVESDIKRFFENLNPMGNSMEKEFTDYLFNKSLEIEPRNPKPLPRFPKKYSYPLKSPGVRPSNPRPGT
SOS1 and KRAS G12C, sequence (Q07889 564-1049, stated change not applied): as above

Row | Compound | IC50 [1] [nM] | IC50 (SOS1 and KRAS G12D) [nM] | IC50 (SOS1 and KRAS G12C) [nM] | Hepatic clearance - QH[%] in human hepatocytes (human hepatocytes) [%] | IC50 (P450 3A4) [nM] | inhibition at 30 min (CYP3A4) [%]
1 | C[C@@H](NC(=O)c1cc(N2CCC3(CCCN3C)CC2)c2ncnn2c1)c1cccc(C(C)(F)F)c1F [Example E74] | 206 | 21 | 26 | 8 | > 50000 | 89
2 | CO[C@@H]1CCN(C2CCN(c3cc(C(=O)N[C@H](C)c4cccc(C(F)(F)F)c4F)cn4cnnc34)CC2)C1 [Example E75] | 408 | 60 | 65 | 9 | > 50000 | 99
3 | Cc1c([C@@H](C)NC(=O)c2cc(N3CCC4(CCCN4C)CC3)c3nnc(C)n3c2)cccc1C(F)(F)F [Example E80] | 213 | 27 | 37 | <4 | > 50000 | 88
4 | C[C@@H](NC(=O)c1cc([C@H]2CC[C@H](N3CCC[C@H](O)C3)CC2)c2nncn2c1)c1cccc(C(F)F)c1F [Example E81] | 258 | 24 | 25 | 15 | > 50000 | 93
5 | Cc1nc2c([C@H]3CC[C@H](N4CCCC4)CC3)cc(C(=O)N[C@H](C)c3cccc(C(F)F)c3F)cn2n1 [Example E84] | 174 | 37 | 38 | 10 | > 50000 | 103
6 | Cc1nc2c([C@H]3CC[C@H](N4CCC[C@H](O)C4)CC3)cc(C(=O)N[C@H](C)c3cccc(C(F)F)c3F)cn2n1 [Example E85] | 158 | 24 | 37 | 14 | > 50000 | 102

Now from value to molecule:

Row | IC50 [1] [nM] | IC50 (SOS1 and KRAS G12D) [nM] | IC50 (SOS1 and KRAS G12C) [nM] | Hepatic clearance - QH[%] in human hepatocytes (human hepatocytes) [%] | IC50 (P450 3A4) [nM] | inhibition at 30 min (CYP3A4) [%] | Compound
7 | 136 | 64 | 64 | 24 | > 50000 | 103 | C[C@@H](NC(=O)c1cc(N2CCC(N3CC[C@@H](CO)C3)CC2)c2ncnn2c1)c1cccc(C(C)(F)F)c1F [Example E73]
8 | 202 | 22 | 27 | <4 | > 50000 | 88 | C[C@@H](NC(=O)c1cc(N2CCC3(CCCN3C)CC2)c2nncn2c1)c1cccc(C(F)(F)F)c1F [Example E77]
9 | 223 | 41 | 43 | 5 | > 50000 | 103 | Cc1nc2c(N3CCC4(CCCN4)CC3)cc(C(=O)N[C@H](C)c3cccc(C(F)(F)F)c3F)cn2n1 [Example E78]
10 | 106 | 14 | 20 | 8 | > 50000 | 90 | Cc1nnc2c(N3CCC4(CCCN4C)CC3)cc(C(=O)N[C@H](C)c3cccc(C(F)(F)F)c3F)cn12 [Example E79]
11 | 90 | 15 | 20 | 5 | > 50000 | 92 | C[C@@H](NC(=O)c1cc(C2=CCC(N3CCC[C@H](O)C3)CC2)c2nncn2c1)c1cccc(C(F)F)c1F (stereo partly drawn) [Example E82]
12 | 174 | 44 | 61 | 15 | > 50000 | 96 | C[C@@H](NC(=O)c1cc(N2CCC3(CCCN3C)CC2)n2ncnc2c1)c1cccc(C(F)(F)F)c1F [Example E86]
13 | 261 | 46 | 56 | 24 | > 50000 | 95 | C[C@@H](NC(=O)c1cc(N2CCC(N3CCC(O)C(C)(O)C3)CC2)c2ncnn2c1)c1cccc(C(F)(F)F)c1F (stereo partly drawn) [Example cis-E29]
